From article PMC5540273, “Progress towards a public chemogenomic set for protein kinases and a call for contributions” (PLoS ONE, 2017)

The compounds below were run against CAMK2A (Homo sapiens, UniProt Q9UQM7) (assay: KINOMEscan competition binding). Settings: read-out: %Inh CAMK2A.
Sequence of CAMK2A (Q9UQM7 whole entry): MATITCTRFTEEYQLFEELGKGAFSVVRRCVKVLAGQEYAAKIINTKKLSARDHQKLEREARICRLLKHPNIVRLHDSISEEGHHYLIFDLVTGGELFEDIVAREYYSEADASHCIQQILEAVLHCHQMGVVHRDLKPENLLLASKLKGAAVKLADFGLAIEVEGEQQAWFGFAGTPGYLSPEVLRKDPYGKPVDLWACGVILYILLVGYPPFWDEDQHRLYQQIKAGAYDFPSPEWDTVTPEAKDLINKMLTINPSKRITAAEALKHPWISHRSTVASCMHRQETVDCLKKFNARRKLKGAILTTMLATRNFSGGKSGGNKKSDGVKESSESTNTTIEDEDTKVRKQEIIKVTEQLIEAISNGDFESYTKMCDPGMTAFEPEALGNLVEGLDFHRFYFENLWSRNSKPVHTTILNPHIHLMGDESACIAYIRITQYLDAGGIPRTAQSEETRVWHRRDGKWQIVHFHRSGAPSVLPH
For `O=c1cc(N2CCOCC2)nc2n(Cc3cccc(Cl)c3Cl)c(C3CC3)nn12` [UNC10225469A], the inhibition at 1 µM was 25%. For `Cn1cc(-c2cnc(N)c3c(-c4ccc5c(c4)CCN5C(=O)Cc4ccccc4)csc23)cn1` [UNC10225012A], the inhibition at 1 µM was 29%. Compound `CS(=O)(=O)Cc1ccc(Nc2nccc(-c3c(-c4cccc(NC(=O)C5CCCCC5)c4)nn4ncccc34)n2)cc1` [UNC10225159A] has an inhibition at 1 µM of 15%. `COc1cccc(OC)c1C(=O)Nc1cccc(-c2nn3ccccc3c2-c2ccnc(Nc3cccc(F)c3)n2)c1` [UNC10225310A] was tested, and the inhibition at 1 µM was 27%. Compound `Cc1ccc(NC(=O)Nc2cccc(C(F)(F)F)c2)cc1` [UNC10225187A] has an inhibition at 1 µM of 32%.

Each compound was assayed against EPHA2 (Homo sapiens, UniProt P29317) (assay: KINOMEscan competition binding). Settings: read-out: %Inh EPHA2.
Sequence of EPHA2 (P29317 24-976): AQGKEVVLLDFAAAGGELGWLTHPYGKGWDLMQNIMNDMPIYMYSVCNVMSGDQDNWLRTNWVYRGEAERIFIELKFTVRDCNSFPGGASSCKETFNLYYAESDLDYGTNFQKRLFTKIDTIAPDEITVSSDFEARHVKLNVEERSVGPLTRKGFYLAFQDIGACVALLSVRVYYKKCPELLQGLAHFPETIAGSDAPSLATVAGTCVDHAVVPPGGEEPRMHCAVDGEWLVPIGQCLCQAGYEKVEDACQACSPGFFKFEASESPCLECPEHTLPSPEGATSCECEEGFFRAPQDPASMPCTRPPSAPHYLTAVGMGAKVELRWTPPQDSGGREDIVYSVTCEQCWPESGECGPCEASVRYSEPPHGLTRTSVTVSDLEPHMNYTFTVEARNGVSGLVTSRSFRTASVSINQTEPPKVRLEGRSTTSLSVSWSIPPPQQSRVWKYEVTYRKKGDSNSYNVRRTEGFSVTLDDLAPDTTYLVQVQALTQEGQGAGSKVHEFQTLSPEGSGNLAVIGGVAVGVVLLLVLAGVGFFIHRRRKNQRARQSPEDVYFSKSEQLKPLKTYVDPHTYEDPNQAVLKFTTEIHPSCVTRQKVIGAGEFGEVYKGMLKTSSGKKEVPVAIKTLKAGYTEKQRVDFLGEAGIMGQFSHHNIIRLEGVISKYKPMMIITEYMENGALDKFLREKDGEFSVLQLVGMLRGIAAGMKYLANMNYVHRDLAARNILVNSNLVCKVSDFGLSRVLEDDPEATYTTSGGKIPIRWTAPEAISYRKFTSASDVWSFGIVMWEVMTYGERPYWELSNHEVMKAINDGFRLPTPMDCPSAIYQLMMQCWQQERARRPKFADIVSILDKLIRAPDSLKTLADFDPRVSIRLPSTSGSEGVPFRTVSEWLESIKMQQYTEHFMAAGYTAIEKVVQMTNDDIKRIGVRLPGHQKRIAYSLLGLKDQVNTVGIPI
`O=c1cc(N2CCOCC2)nc2n(Cc3cccc(Cl)c3Cl)c(C3CC3)nn12` [UNC10225469A] gave an inhibition at 1 µM of 0%. Compound `Cn1cc(-c2cnc(N)c3c(-c4ccc5c(c4)CCN5C(=O)Cc4ccccc4)csc23)cn1` [UNC10225012A] has an inhibition at 1 µM of 0%. For `CS(=O)(=O)Cc1ccc(Nc2nccc(-c3c(-c4cccc(NC(=O)C5CCCCC5)c4)nn4ncccc34)n2)cc1` [UNC10225159A], the inhibition at 1 µM was 51%. For `COc1cccc(OC)c1C(=O)Nc1cccc(-c2nn3ccccc3c2-c2ccnc(Nc3cccc(F)c3)n2)c1` [UNC10225310A], the inhibition at 1 µM was 11%. Compound `Cc1ccc(NC(=O)Nc2cccc(C(F)(F)F)c2)cc1` [UNC10225187A] has an inhibition at 1 µM of 0%.

The compounds below were run against EPHA5 (Homo sapiens, UniProt P54756) (assay: KINOMEscan competition binding). Settings: read-out: %Inh EPHA5.
Sequence of EPHA5 (P54756 25-1037): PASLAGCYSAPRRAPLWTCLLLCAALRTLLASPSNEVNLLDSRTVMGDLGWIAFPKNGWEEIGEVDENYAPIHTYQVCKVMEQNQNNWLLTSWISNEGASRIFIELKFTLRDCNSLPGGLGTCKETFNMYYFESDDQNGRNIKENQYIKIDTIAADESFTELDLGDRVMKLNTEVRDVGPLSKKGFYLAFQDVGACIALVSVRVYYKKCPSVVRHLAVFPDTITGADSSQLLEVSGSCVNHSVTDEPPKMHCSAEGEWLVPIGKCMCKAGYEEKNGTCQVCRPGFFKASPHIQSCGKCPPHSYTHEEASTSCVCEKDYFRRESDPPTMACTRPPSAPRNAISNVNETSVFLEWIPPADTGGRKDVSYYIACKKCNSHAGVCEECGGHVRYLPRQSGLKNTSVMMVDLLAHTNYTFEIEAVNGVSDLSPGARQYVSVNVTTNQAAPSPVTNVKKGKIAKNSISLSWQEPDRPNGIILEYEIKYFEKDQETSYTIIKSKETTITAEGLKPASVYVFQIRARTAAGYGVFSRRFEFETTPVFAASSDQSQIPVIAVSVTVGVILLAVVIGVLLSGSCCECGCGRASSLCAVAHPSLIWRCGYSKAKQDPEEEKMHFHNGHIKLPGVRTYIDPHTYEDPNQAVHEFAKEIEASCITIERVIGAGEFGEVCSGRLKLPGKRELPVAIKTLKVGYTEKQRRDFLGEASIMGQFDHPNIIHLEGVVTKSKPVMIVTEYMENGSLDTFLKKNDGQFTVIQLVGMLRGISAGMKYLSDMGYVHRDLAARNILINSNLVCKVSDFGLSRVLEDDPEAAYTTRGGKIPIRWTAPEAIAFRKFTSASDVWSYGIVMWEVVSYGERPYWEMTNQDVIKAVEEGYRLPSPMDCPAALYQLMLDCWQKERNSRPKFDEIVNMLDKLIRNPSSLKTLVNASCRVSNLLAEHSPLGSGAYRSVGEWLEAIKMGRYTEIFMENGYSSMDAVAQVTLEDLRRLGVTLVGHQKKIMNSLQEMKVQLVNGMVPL
`O=c1cc(N2CCOCC2)nc2n(Cc3cccc(Cl)c3Cl)c(C3CC3)nn12` [UNC10225469A] gave an inhibition at 1 µM of 6%. Work on `Cn1cc(-c2cnc(N)c3c(-c4ccc5c(c4)CCN5C(=O)Cc4ccccc4)csc23)cn1` [UNC10225012A] yielded an inhibition at 1 µM of 0%. `CS(=O)(=O)Cc1ccc(Nc2nccc(-c3c(-c4cccc(NC(=O)C5CCCCC5)c4)nn4ncccc34)n2)cc1` [UNC10225159A] gave an inhibition at 1 µM of 0%. Compound `COc1cccc(OC)c1C(=O)Nc1cccc(-c2nn3ccccc3c2-c2ccnc(Nc3cccc(F)c3)n2)c1` [UNC10225310A] has an inhibition at 1 µM of 11%. `Cc1ccc(NC(=O)Nc2cccc(C(F)(F)F)c2)cc1` [UNC10225187A] was tested, and the inhibition at 1 µM was 0%.

These compounds were tested against T1, EPHA8 (Homo sapiens, UniProt P29322) (assay: KINOMEscan competition binding). Settings: read-out: %Inh EPHA8.
T1 sequence (P29322 28-1005): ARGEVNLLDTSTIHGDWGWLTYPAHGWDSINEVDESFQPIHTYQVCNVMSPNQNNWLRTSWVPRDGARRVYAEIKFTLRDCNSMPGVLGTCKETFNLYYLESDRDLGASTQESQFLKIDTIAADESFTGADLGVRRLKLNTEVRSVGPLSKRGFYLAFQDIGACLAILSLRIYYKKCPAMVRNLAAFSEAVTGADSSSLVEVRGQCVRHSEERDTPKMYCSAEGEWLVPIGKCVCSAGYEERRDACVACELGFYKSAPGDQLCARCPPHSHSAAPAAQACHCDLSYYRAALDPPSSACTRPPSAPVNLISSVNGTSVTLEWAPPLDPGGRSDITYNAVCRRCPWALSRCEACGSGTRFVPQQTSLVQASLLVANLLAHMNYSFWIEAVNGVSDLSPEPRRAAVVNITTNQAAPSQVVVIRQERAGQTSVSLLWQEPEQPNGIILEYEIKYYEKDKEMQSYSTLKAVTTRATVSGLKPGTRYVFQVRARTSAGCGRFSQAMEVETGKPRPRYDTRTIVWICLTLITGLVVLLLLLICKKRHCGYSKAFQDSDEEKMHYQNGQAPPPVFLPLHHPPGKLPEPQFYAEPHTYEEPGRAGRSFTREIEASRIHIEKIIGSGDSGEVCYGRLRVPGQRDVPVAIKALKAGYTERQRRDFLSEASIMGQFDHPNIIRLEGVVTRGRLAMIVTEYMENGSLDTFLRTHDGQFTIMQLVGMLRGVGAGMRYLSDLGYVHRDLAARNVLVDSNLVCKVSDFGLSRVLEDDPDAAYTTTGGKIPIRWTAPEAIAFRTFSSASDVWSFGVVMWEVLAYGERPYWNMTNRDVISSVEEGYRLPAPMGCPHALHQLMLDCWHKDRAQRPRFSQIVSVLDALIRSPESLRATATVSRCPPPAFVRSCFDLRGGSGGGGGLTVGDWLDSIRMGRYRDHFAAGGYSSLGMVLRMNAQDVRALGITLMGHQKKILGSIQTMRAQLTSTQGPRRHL
Work on `O=c1cc(N2CCOCC2)nc2n(Cc3cccc(Cl)c3Cl)c(C3CC3)nn12` [UNC10225469A] yielded an inhibition at 1 µM of 9%. `Cn1cc(-c2cnc(N)c3c(-c4ccc5c(c4)CCN5C(=O)Cc4ccccc4)csc23)cn1` [UNC10225012A] showed an inhibition at 1 µM of 8%. In the case of `CS(=O)(=O)Cc1ccc(Nc2nccc(-c3c(-c4cccc(NC(=O)C5CCCCC5)c4)nn4ncccc34)n2)cc1` [UNC10225159A], the inhibition at 1 µM is reported as 15%. `COc1cccc(OC)c1C(=O)Nc1cccc(-c2nn3ccccc3c2-c2ccnc(Nc3cccc(F)c3)n2)c1` [UNC10225310A] showed an inhibition at 1 µM of 17%. For `Cc1ccc(NC(=O)Nc2cccc(C(F)(F)F)c2)cc1` [UNC10225187A], the inhibition at 1 µM was 3%.

The compounds below were run against T2, ICK (Homo sapiens, UniProt Q9UPZ9) (assay: KINOMEscan competition binding). Settings: read-out: %Inh ICK.
T2 sequence (Q9UPZ9 1-632): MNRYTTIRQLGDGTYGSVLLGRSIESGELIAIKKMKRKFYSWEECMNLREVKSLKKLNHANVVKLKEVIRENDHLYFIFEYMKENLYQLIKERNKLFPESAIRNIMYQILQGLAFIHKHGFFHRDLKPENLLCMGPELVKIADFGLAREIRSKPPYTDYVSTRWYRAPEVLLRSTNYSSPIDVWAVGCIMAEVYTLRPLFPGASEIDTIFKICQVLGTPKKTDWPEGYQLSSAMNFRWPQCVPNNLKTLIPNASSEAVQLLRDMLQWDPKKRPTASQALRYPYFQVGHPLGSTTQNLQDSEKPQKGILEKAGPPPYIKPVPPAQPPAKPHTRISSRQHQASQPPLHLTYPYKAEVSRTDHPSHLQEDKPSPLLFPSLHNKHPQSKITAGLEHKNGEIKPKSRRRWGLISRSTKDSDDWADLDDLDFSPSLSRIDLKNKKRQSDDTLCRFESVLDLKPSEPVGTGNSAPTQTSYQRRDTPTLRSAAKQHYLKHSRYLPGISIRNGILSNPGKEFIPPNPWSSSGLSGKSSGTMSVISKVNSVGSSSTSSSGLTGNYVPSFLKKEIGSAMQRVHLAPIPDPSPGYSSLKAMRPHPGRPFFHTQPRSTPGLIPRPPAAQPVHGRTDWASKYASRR
For `O=c1cc(N2CCOCC2)nc2n(Cc3cccc(Cl)c3Cl)c(C3CC3)nn12` [UNC10225469A], the inhibition at 1 µM was 4%. `Cn1cc(-c2cnc(N)c3c(-c4ccc5c(c4)CCN5C(=O)Cc4ccccc4)csc23)cn1` [UNC10225012A] was tested, and the inhibition at 1 µM was 100%. `CS(=O)(=O)Cc1ccc(Nc2nccc(-c3c(-c4cccc(NC(=O)C5CCCCC5)c4)nn4ncccc34)n2)cc1` [UNC10225159A] gave an inhibition at 1 µM of 14%. With `COc1cccc(OC)c1C(=O)Nc1cccc(-c2nn3ccccc3c2-c2ccnc(Nc3cccc(F)c3)n2)c1` [UNC10225310A] the inhibition at 1 µM was 0%. For `Cc1ccc(NC(=O)Nc2cccc(C(F)(F)F)c2)cc1` [UNC10225187A], the inhibition at 1 µM was 0%.

These compounds were tested against KIT-autoinhibited (Homo sapiens, UniProt P10721) (assay: KINOMEscan competition binding). Settings: read-out: %Inh KIT-autoinhibited.
Sequence of KIT-autoinhibited (P10721 546-976 limits assumed): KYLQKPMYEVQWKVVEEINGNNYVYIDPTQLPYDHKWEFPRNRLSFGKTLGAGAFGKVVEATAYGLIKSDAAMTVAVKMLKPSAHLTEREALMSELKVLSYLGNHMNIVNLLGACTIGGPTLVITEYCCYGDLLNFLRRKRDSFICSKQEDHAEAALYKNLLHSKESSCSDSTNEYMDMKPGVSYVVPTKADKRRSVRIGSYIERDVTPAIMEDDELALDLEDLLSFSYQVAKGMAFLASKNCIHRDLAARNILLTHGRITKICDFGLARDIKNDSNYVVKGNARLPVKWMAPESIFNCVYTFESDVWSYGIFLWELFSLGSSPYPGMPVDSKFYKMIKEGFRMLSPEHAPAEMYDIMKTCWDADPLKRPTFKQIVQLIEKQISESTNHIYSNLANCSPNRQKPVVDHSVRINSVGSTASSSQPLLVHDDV
`O=c1cc(N2CCOCC2)nc2n(Cc3cccc(Cl)c3Cl)c(C3CC3)nn12` [UNC10225469A] showed an inhibition at 1 µM of 15%. `Cn1cc(-c2cnc(N)c3c(-c4ccc5c(c4)CCN5C(=O)Cc4ccccc4)csc23)cn1` [UNC10225012A] was tested, and the inhibition at 1 µM was 32%. In the case of `CS(=O)(=O)Cc1ccc(Nc2nccc(-c3c(-c4cccc(NC(=O)C5CCCCC5)c4)nn4ncccc34)n2)cc1` [UNC10225159A], the inhibition at 1 µM is reported as 14%. `COc1cccc(OC)c1C(=O)Nc1cccc(-c2nn3ccccc3c2-c2ccnc(Nc3cccc(F)c3)n2)c1` [UNC10225310A] showed an inhibition at 1 µM of 11%. `Cc1ccc(NC(=O)Nc2cccc(C(F)(F)F)c2)cc1` [UNC10225187A] was tested, and the inhibition at 1 µM was 3%.
